This note sets out measurements from US20250049798A1, “WEE1 PROTEIN KINASE DEGRADATION AGENT AND USE THEREOF” (HANGZHOU GLUBIO PHARMACEUTICAL CO. LTD., priority 2021, published 2025).

In brackets after ≈: the same amount, converted by molar mass. Like-named read-outs stand apart in the source and are kept apart here.

In one series the target is HiBiT tagged Wee1 (Homo sapiens, UniProt P30291). Put plainly: Wee1 protein degradation assay (HiBiT assay). The class given is cell-based. As to conditions: engineered HT-1080 cells, 20 hours; for Dmax: maximum percentage of Wee1 degradation, read-out: HiBiT Wee1: Dmax.
HiBiT tagged Wee1, sequence (P30291 whole entry): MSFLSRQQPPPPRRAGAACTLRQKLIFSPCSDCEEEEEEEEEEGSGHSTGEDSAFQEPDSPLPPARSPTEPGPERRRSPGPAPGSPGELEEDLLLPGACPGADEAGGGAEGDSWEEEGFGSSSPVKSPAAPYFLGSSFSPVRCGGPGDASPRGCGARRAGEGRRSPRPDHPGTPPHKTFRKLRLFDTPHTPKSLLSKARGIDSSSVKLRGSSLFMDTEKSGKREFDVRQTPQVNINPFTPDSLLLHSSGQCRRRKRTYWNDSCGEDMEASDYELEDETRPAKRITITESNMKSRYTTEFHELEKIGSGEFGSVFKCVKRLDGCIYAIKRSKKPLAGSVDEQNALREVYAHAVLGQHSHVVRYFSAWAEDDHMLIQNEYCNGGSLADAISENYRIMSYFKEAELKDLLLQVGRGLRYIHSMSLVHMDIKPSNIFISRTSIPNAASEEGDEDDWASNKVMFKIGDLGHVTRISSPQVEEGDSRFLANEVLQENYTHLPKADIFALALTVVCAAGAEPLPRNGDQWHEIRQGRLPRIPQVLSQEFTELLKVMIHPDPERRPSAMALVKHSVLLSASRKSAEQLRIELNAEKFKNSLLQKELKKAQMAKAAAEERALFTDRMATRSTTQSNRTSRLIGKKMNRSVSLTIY
The test system of a further series is NCI-H1048 cells. Put plainly: NCI-H1048 cell proliferation assay (CTG assay). The class given is cell-based. As to conditions: Homo sapiens, 120 hours, read-out: CTG cellular assay_H1048: IC50. The procedure, abridged:
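NCI-H1048 small cell lung cancer cells (RPMI-1640, 10% FBS) were exposed to 10-point half-log compound dilutions from 10 μM to 0.316 nM for 120 h at 37° C., 5% CO2. Viability was read by CellTiter-Glo luminescence and normalized to DMSO as percent of control. EC50 and DC50 were fitted with a four-parameter logistic model.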

Series [1] can be described thus: Pharmacokinetic study in mice (IV and PO). The series is classed as in vivo. As to conditions: male CD1 mice; for F: PO (10 mg/kg) vs IV (2 mg/kg); for AUC(0-inf) / clearance / half-life / Cmax: mouse, plasma; for half-life: read-out: T½ (converted). As to the method: Objective: the objective of this study was to determine the pharmacokinetics of test compound following intravenous (IV) and oral (PO) administration to male CD1 mice.
Materials: Male CD1 mouse (20-30 g, 6-8 weeks, Zhejiang Vital River Laboratory Animal Technology Co., Ltd.).
The CD1 mice were administered with the test article intravenously via tail vein at 2 mg/kg or orally at 10 mg/kg. The animals had free access to food and water. After dose administration, blood was collected from the dorsal metatarsal vein at 5 min (0.0833 h, IV only), 15 min (0.25 h), 30 min (0.5 h), 60 min (1 h), 2 h, 4 h, 6 h, 8 h and 24 h. Blood samples were placed in an anticoagulant tube with EDTA-K2, mixed adequately and centrifuged at 4° C., 4000 g for 5 minutes to get the plasma. The plasma samples were stored at −75±15° C. until analyzed by LC-MS/MS. The PK parameters were calculated using non-compartmental model by Phoenix WinNonlin 6.1 (Linear/log trapezoidal).

The nature of series [2]: Permeability study in MDCKII cells (bidirectional A to B and B to A). The class given is in vitro ADME, Canine. As to conditions: dog, MDCK; for efflux ratio at 120 min, 1 μM: pH 7.4; for Papp A→B at 120 min, 1 μM / Papp B→A at 120 min, 1 μM: pH 7.4, 120 minutes; for Papp A→B at 120 min, 1 μM: apical to basolateral; for Papp B→A at 120 min, 1 μM: basolateral to apical. The method, then: MDCKII (Madin-Darby Canine Kidney cell line, wild type) cell was obtained from the Netherlands Cancer Institute, which was used for P-gp substrates or inhibitors screening and predicting the permeability of compounds with high efflux barriers such as duodenum, blood-brain barrier, hepatocyte nucleus and renal unit. The MDCKII cells with 10 to 22 passages were used for the permeability investigation.
MDCKII cells were cultured using Minimum Essential Media (MEM) at 37° C., 5% CO2 and 95% relative humidity. The cells were seeded in Transwell plate with 5.45×10^5 cells/cm^2. Then the cells were incubated in CO2 Incubator for 4-7 days for transport studies.
The complete medium was prepared by adding 10% FBS (fetal bovine serum) and 1% glutamax-1 to 500 ml MEM.
The dose concentrations of test compounds and control compounds were 1 μM. The bidirectional (A to B and B to A) permeability was evaluated. All incubations are performed in duplicate.
The regents were pre-incubated at 37±1° C. for 30 minutes. To determine the transport rate from apical to basolateral direction, 125 μL working solution (1 μM) was added to the Transwell insert (apical compartment), and 50 μL sample was immediately transferred from the apical compartment to a new 96-well plate as the initial donor sample (A-B) and mixed with 200 μL of acetonitrile or methanol containing IS. And 235 μL HBSS (10 mM HEPES, pH 7.4) was added to the receiver plate (basolateral compartment). To determine the transport rate from basolateral to apical direction, 285 μL working solution (1 μM) was added to the receiver plate (basolateral compartment), and 50 μL sample was immediately transferred from the basolateral compartment to a new 96-well plate as the initial donor sample (B-A) and mixed with 200 μL of acetonitrile or methanol containing IS. And 75 μL HBSS (10 mM HEPES, pH 7.4) was added to the Transwell insert (apical compartment). Then the plate was incubated at […] with 5% CO2 and 95% relative humidity for 120 minutes.
At the end of incubation, 50 μL samples from donor and receiver sides were transferred into a new 96-well plate. 200 μL of ice-cold acetonitrile or methanol containing appropriate internal standards (IS) was mixed with the samples. After vortex for 10 minutes, the samples are centrifuged at 3220 g for 40 minutes. An aliquot of 100 μL of the supernatant was mixed with appropriate volume of ultra-pure water and was analyzed by LC-MS/MS. All incubations are performed in duplicate.
The integrity of MDCKII cells were checked by Lucifer Yellow Rejection Assay after transport assay. The plate(s) were incubated with Lucifer Yellow solution at 37° C. for 30 minutes. The Lucifer Yellow fluorescence (to monitor monolayer integrity) was measured in a fluorescence plate reader at 480 nm excitation and 530 nm emission.
Test and reference compounds (metoprolol and digoxin) were semi-quantitatively analyzed, and the peak area ratio of the analyte and the internal standard was used to evaluate the concentration of the compounds.

Series [3] in a line: Determination of kinetic solubility. The series is classed as physicochemical. As to conditions: PBS, aqueous buffer, kinetic from dmso stock, shaking at 25° C. for 2 hours. As to the method: An aliquot of 30 μL stock solution (10 mM) was placed in order into their proper 96-well rack. 970 μL of PBS was added into each vial of the cap-less solubility sample plate. The assay was performed in duplicate. In each vial, a stir stick was added and sealed with a molded PTFE/Silicone plug. […] Plugs were removed after 2 hours and the stir sticks were removed using a big magnet. Then the samples were transferred from the solubility sample plate into the filter plate. All the samples were filtered using the vacuum manifold. An aliquot of 5 μL filtrate was mixed with 5 μL DMSO and 490 μL of a mixture of H2O and acetonitrile (v:v, 1:1) containing internal standard. A certain proportion of ultrapure water was used to dilute according to the peak shape. The dilution factor was changed according to the solubility values and the LC-MS/MS signals.
An aliquot of 6 μL stock solution (10 mM in DMSO) was transferred from standard (STD) stock plate into a new plate, and then 194 μL of DMSO was added to get a STD working solution of 300 μM. Then 5 μL of 300 μM working solution was mixed with 5 μL of DMSO and 490 μL of a mixture of H2O and acetonitrile (v:v, 1:1) containing internal standard and the final STD concentration was 3 μM. The STD concentration were changed according to the LC-MS/MS signals.
The sample plate was put into the autosampler and the test compound concentration was determined by LC-MS/MS.

[4] abbreviates: pH 3.0, read-out: Kinetic solubility (μM) pH 3.0.
The mark [5] stands for this setting: pH 5.0, read-out: Kinetic solubility (μM) pH 5.0.

For the compound `C=CCn1c(=O)c2cnc(Nc3ccc(N4CCN(CC5CCN(c6ccc(NC7CCC(=O)NC7=O)cc6F)CC5)CC4)cc3)nc2n1-c1ccc2c(n1)[C@@](O)(CC)CC2` (mixture of isomers) [Compound 110], at HiBiT tagged Wee1, the DC50 was less than 0.1 µM and the Dmax was more than 75%. Also, in the series on NCI-H1048 cells, the IC50 was not above 0.025 µM. Further, the F in series [1] amounted to 106%. Moreover, in series [1] (IV (2 mg/kg)), the AUC(0-inf) came out at 10900 ng·h/mL, the clearance turned out to be 3.24 mL/min/kg and the half-life was 3.03 h. For the same compound, in series [1] (PO (10 mg/kg)), the AUC(0-inf) is 53200 ng·h/mL, the Cmax worked out at 4210 ng/mL and the half-life is 2.95 h. Further, in series [2], the efflux ratio at 120 min, 1 μM turned out to be 0.89; the Papp A→B at 120 min, 1 μM was 2.37 ×10⁻⁶ cm/s; the Papp B→A at 120 min, 1 μM was found to be 2.11 ×10⁻⁶ cm/s. The kinetic solubility at 2 h in series [3] (setting [4]) turned out to be 233 µM. In addition, in series [3] (setting [5]), the solubility (kinetic) at 2 h is 132 µM.

For the compound `C=CCn1c(=O)c2cnc(Nc3ccc(N4CCN(CC5CCN(c6cccc7c6n(C)c(=O)n7C6CCC(=O)NC6=O)CC5)CC4)cc3)nc2n1-c1cccc(C(C)(C)O)n1` (centres unmarked) [Compound 65], at HiBiT tagged Wee1, the DC50 is less than 0.1 µM and the Dmax was in the range of 50 to 75%. The IC50 in the series on NCI-H1048 cells was not above 0.025 µM. In addition, in series [2], the efflux ratio at 120 min, 1 μM came out at 0.94; the Papp A→B at 120 min, 1 μM turned out to be 1.35 ×10⁻⁶ cm/s; the Papp B→A at 120 min, 1 μM is 1.27 ×10⁻⁶ cm/s.

Regarding `C=CCn1c(=O)c2cnc(Nc3ccc(N4CCC(CN5CCC(c6cccc7c6n(C)c(=O)n7C6CCC(=O)NC6=O)CC5)CC4)cc3)nc2n1-c1cccc(C(C)(C)O)n1` (centres unmarked) [Compound 55], on HiBiT tagged Wee1, the half-maximal degradation concentration (DC50) is less than 0.1 µM and the Dmax lay in the range of 50 to 75%. For the same compound, the IC50 in the series on NCI-H1048 cells was not above 0.025 µM. In series [1], the F was 38.9%. In series [1] (IV (2 mg/kg)), the AUC(0-inf) was 6980 ng·h/mL, the clearance worked out at 4.78 mL/min/kg and the half-life is 5.7 h. Also, in series [1] (PO (10 mg/kg)), the AUC(0-inf) is 13600 ng·h/mL, the Cmax was determined as 902 ng/mL and the half-life was 5.2 h. In addition, in series [2], the efflux ratio at 120 min, 1 μM amounted to 2.88; the Papp A→B at 120 min, 1 μM turned out to be 2.48 ×10⁻⁶ cm/s; the Papp B→A at 120 min, 1 μM was 7.09 ×10⁻⁶ cm/s. In series [3] (setting [4]), the kinetic solubility at 2 h stood at 194 µM (≈ 163 µg/mL). The kinetic solubility at 2 h in series [3] (setting [5]) is 55.7 µM (≈ 46.8 µg/mL).

Consider `C=CCn1c(=O)c2cnc(Nc3ccc(N4CCC(CN(C)C5CCN(c6cccc7c6n(C)c(=O)n7C6CCC(=O)NC6=O)CC5)CC4)cc3)nc2n1-c1cccc(C(C)(C)O)n1` (centres unmarked) [Compound 61], for which, on HiBiT tagged Wee1, the DC50 is less than 0.1 µM and the Dmax is 50 to 75%. Besides, the IC50 in the series on NCI-H1048 cells was not above 0.025 µM. The solubility (kinetic) at 2 h in series [3] (setting [4]) turned out to be 299 µM (≈ 260 µg/mL). Moreover, the kinetic solubility at 2 h in series [3] (setting [5]) was 203 µM (≈ 176 µg/mL).

For the compound `C=CCn1c(=O)c2cnc(Nc3ccc(C4CCN(CC5CCN(c6cccc7c6n(C)c(=O)n7C6CCC(=O)NC6=O)CC5)CC4)cc3)nc2n1-c1cccc(C(C)(C)O)n1` (centres unmarked) [Compound 66], on HiBiT tagged Wee1, the 50% degradation concentration (DC50) was less than 0.1 µM and the Dmax is 50 to 75%. Also, in the series on NCI-H1048 cells, the IC50 was not above 0.025 µM. This compound also gave a F in series [1] of 23.6%. Moreover, in series [1] (IV (2 mg/kg)), the AUC(0-inf) stood at 26700 ng·h/mL, the clearance is 1.25 mL/min/kg and the half-life is 7 h. Besides, in series [1] (PO (10 mg/kg)), the AUC(0-inf) was 31600 ng·h/mL, the Cmax came to 1880 ng/mL and the half-life is 7.2 h. Besides, the kinetic solubility at 2 h in series [3] (setting [4]) worked out at 252 µM (≈ 212 µg/mL). Moreover, the kinetic solubility at 2 h in series [3] (setting [5]) is 148 µM (≈ 124 µg/mL).
